Source: paper PMC6614837 (Nucleic Acids Research, 2019)
“Also recorded” adds a separate entry of the source.

Assays:
[1] = target: T1, RNase P holoenzyme from Thermotoga maritima (Thermotoga maritima, UniProt Q9X1H4); assay: Real-time fluorescence-based (FRET) RNase P activity assay with minihelix (Mh) substrate; type: biochemical
T1 construct: made in house
T1 sequence (Q9X1H4 1-117): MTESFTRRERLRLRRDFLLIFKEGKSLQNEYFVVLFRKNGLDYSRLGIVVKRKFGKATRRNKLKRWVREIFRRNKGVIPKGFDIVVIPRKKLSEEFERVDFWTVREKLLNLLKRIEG
Protocol: The reconstitution of the RNase P holoenzyme was performed as described in ([40],[19]). This protocol produces a homogeneous and functional ribozyme that can be crystallized by mixing P RNA and P protein in a 1:1.1 molar ratio in 1× TH buffer (33 mM Tris–HCl, 66 mM HEPES, pH 7.4) and 400 mM ammonium acetate (AmOAc). The mixture was heated to 95°C for 2 min in a water bath, then chilled on ice for 2 min, after which MgCl2 was added to a final concentration of 100 mM. […] This higher concentration was used in all experiments described herein. The holoenzyme was further incubated at 50°C for 10 min and 37°C for 40 min. The final concentration of holoenzyme was 333 nM (35.6 μg/ml of P RNA and 4.7 μg/ml of P protein).
The minihelix (Mh) substrate (Figure 1A) was adopted from a previously characterized RNase P substrate, pMini3bpUG ([32],[33]) and coupled to either Black Hole Quencher 1 (BHQ1) or Black Hole Quencher 2 (BHQ2) at the 5′-end and Alexa Fluor 488 at the 3′-end. This probe was purchased either from Sigma-Aldrich or Integrated DNA Technologies (IDT). A requested scale of […] yielded between 6.3 and 20 nmol (57.5 to 181 μg, enough for 1300–4000 reactions depending on the experimental substrate concentration). Before use, the minihelix was diluted from a 100 μM stock (dissolved in water) to 3.6 μM in activity buffer H (33 mM Tris–HCl, 66 mM HEPES, pH 7.4, 400 mM AmOAc and 100 mM MgCl2).
Reactions were performed in a total volume of 20 μl. Pipetting was done by hand using multichannel pipettes. First, an 18 μl reaction mixture containing 16.5 μl of activity buffer (H for Mh or L supplemented with 10% PEG 200 for bipartite pre-tRNA) and 270 nM (Mh) or 135 nM (bipartite pre-tRNA) (1.5 or 0.7 μl of the 3.6 μM stock) of the fluorescent substrate probe was pre-incubated on ice for at least 5 m in a black polystyrene 384-well microtiter microplate with a flat transparent bottom (Corning ref 3540). The holoenzyme was then added at a final concentration of 33 nM (2 μl of a 333 nM stock) in 1× TH buffer and mixed. Kinetic activity was monitored in a Synergy MX Multimode Detector (BioTek) at 37°C with rapid agitation. At least 20 readings were taken per well every 15 s. The probe was excited at 485 nm, and its emission was monitored at 535 nm with an integration time of 1 s. From the plots of relative fluorescent units (RFU) versus time, linear regression was used to determine the slopes in the linear portion of the curves, using at least 12 data points to obtain initial velocities. Non-linear fitting to obtain the Michaelis–Menten parameters was performed using GraphPad Prism® 6.01 software.
Supplementary Figure 3. FRET assays of RNase P with the fluorescent substrate are reproducible. (A) Representative plots of kinetic assays performed in a single run. The standard assay (SA), (+), was performed at 37° C in a total volume of 20 µL and contained RNase P holoenzyme at 33 nM, substrate minihelix (Mh) at 270 nM, 10% DMSO and activity buffer (AB).
The negative control assay (-) contained 100 mM CaCl2 in place of MgCl2. Ten to twelve wells were monitored simultaneously in a typical assay. (B) Zoomed view of the linear region of the kinetic assays shown in panel A. Fluorescence readings were performed every 15-20 seconds.
Linear regression calculations were done using the GraphPad Prism 7 software. (C) The coefficient Z’-factor (1) was used as an indicator of reproducibility and was calculated based on the relative fluorescence units (RFU) in the plateau phase (taken at 20 minutes). The Z’-factor has a […]
presented in this work were either measured in triplicate or confirmed in subsequent assays. (D) […]
assay is robust. The IC50 values reported in Figures 1C and 2 were calculated according to this kinetic parameter. There is a negative drift in fluorescence in the case of the negative control.
However, it should be noted that the mean value of it (-279) is much smaller than the signal of the […]
positive control (3397). […]

RNase P from E. coli = test system: RNase P from E. coli; design: method as in PMID 24097434; conditions: cited from earlier work
[2] = target: T2, RNase P protein (TmP, P protein) (Thermotoga maritima, UniProt Q9X1H4 1-117); assay: BLI; conditions: BLI (Octet RED96): 20 mM HEPES pH 7.4, 100 mM ammonium acetate, 10 mM MgCl2, 2.5-5% DMSO, 30 C; P protein:P RNA in 33 mM Tris, 66.6 mM HEPES, 200 mM ammonium …
T2 sequence: T1 sequence (Q9X1H4 1-117)

P RNA [3] = assay: Gel-based activity assay, bipartite pre-tRNA substrate, P RNA alone; type: biochemical, T. maritima; conditions: 100 mM AmOAc, 10 mM MgCl2
Protocol: For gel-based activity assays, reactions were prepared as described in the previous section (fluorescence activity assay), incubated for 1–15 min at 37–50°C, then loaded onto a denaturing 7 M urea–20% acrylamide gel in the case of the Mh substrate or 19% acrylamide (40% acrylamide/bisacrylamide 38.5:1.5) for the bipartite pre-tRNA substrate. The activity conditions for the gel reported in Figure 3A, to monitor the cleavage of the holoenzyme and P RNA, were under 100 mM AmOAc and 10 mM MgCl2. The gels (13 × 16 × 0.15 cm) were electrophoresed at 20 V/cm for 2–3 h. UV shadowing or ethidium bromide staining was used to visualize RNA cleavage. Detection of minihelix fluorescence was achieved without staining using a UV lamp with excitation at ∼254 nm.
Figure 3. The inhibitors purpurin and hematein bind to the holoenzyme. (A) Top. […] Bottom. […] (B) The relative affinities of the inhibitors for the P RNA or the holoenzyme differ. Binding sensorgrams obtained by biolayer interferometry (BLI). P RNA or RNase P holoenzyme was immobilized on super streptavidin (SSA) biosensors through a 5′-biotinylated RNA oligonucleotide complementary to a region on the P1 stem of P RNA (see Materials and Methods). […] In contrast, gentian violet binds not only to P RNA but also to the Mh substrate (Supplementary Figure S16). (C) Molecular Dynamics (MD) simulations of RNase P protein in complex with the validated inhibitors. In each panel, semitransparent spheres represent the geometric center, over a 200 ns trajectory, of the corresponding tested compound. The 5′-leader (yellow) is shown for reference purposes only; it was not included in the simulation. Sphere color coding indicates the starting and final positions in blue and red, respectively. […] Purpurin's starting conformation corresponds to that observed in the crystal structure in complex with the P protein (PDB code: 6MAX. See Figure 5).

P RNA [4] = assay: Biolayer interferometry binding to immobilized P RNA; design: species or system T. maritima; conditions: BLI, P RNA on SSA biosensors via biotinylated oligonucleotide
Protocol: (§1) Real-time binding assays of the holoenzyme, P RNA, P protein, the substrate minihelix and the 5′-leader to individual compounds were performed by biolayer interferometry using an Octet RED96 system (ForteBio). For the holoenzyme or P RNA, a 5′ biotinylated RNA oligonucleotide with the sequence 5′biotin-CAUUCCAGACGAU was immobilized on Super Streptavidin (SSA) biosensors. Then, a modified P RNA or holoenzyme was added. The P RNA modification consisted of a sequence with part of the P1 stem sequence complementary to the biotinylated oligonucleotide (AUCGUCUGGA) (Supplementary Figure S23A). P1 is far from the active site or other regions involved in specific interactions (Supplementary Figure S23B) ([19]). The activity of this construct was indistinguishable from the wild-type holoenzyme. Alternatively, the holoenzyme was immobilized through the His-tagged P protein from T. maritima at 0.05 mg/ml (3.4 μM) on Ni-NTA biosensors. Control biosensors were used to subtract non-specific binding of compounds to the biosensor surface. All assay steps (immobilization, wash, baseline, association, and dissociation) were performed in 20 mM HEPES pH 7.4, 100 mM ammonium acetate, 10 mM MgCl2, 2.5% DMSO. The assays were performed on black bottom 96-well microplates (Greiner Bio-One 655209) in a total volume of 200 μl, at 30°C with orbital shaking at 1000 rpm. Experiments were controlled with the software Data Acquisition 8.2 (ForteBio, Inc.). Kinetic binding parameters were calculated using Data Analysis 8.2 (ForteBio, Inc.). After subtraction of reference biosensors, the binding curves were aligned to the X- and Y-axis and the association-dissociation inter-step curve in order to get a common baseline for the association and dissociation phases.
Figure 3. The inhibitors purpurin and hematein bind to the holoenzyme. (A) Top. […] Bottom. […] (B) The relative affinities of the inhibitors for the P RNA or the holoenzyme differ. Binding sensorgrams obtained by biolayer interferometry (BLI). […]

RNase P holoenzyme = target: T3, RNase P holoenzyme (Thermotoga maritima, UniProt Q9X1H4); assay: Displacement of pre-tRNA from the holoenzyme (BLI); type: binding, T. maritima; conditions: holoenzyme on Ni-NTA biosensors, compound 0–400 μM, then pre-tRNA
T3 construct: GST (cleaved yes); made in house; host or cells: E. coli BL21(DE3)pLysS
T3 sequence (Q9X1H4 1-117): T1 sequence (Q9X1H4 1-117)
Protocol: as §1
Figure 4. Characterization of the inhibition of T. maritima RNase P by purpurin. (A) Best global fit for inhibition of RNase P in the presence of varying concentrations of fluorescent Mh substrate. […] Symbols represent the mean ± standard error as determined from three independent experiments at each concentration. See also Supplementary Figure S18. […] Binding sensorgrams obtained by biolayer interferometry (BLI). RNase P holoenzyme at 400 nM was immobilized on Ni-NTA. […] Binding sensorgrams obtained by biolayer interferometry (BLI). RNase P holoenzyme was immobilized on Ni-NTA biosensors, incubated with purpurin at varying concentrations (0–400 μM), and then the association and dissociation pre-tRNA was monitored. […] See also Supplementary Figure S17.

minihelix (Mh) = assay: Biolayer interferometry binding to biotinylated minihelix substrate; conditions: BLI
Protocol: 3′-Biotinylated minihelix was purchased from Integrated DNA Technologies (IDT) (24-mer RNA sequence, 5′-[…]-3′-Biotin). The biotinylated minihelix was immobilized on Super Streptavidin (SSA) biosensors at a concentration of 10 μM. […] For the titration experiments, 10 μM of 3′-biotinylated minihelix was immobilized for 300 s on Super Streptavidin (SSA) biosensors, followed by a wash step of 100 s and association and dissociation steps of 200 s in the presence of 6 different concentrations of compound ranging from 500 to 15.6 μM. SSA biosensors with no minihelix were used to measure non-specific binding of compounds. All other parameters (buffer, instrument control, analysis) are as described above.
Supplementary Figure 16. Binding assays monitor the interaction of compounds with the minihelix (Mh). Gentian violet and methylene blue bind in a dose-dependent relationship to the artificial minihelix substrate. […]
interaction between the minihelix and (A) gentian violet (KD=8 µM ) and (B) methylene blue A 3′-biotinylated substrate minihelix at 10 µ M was immobilized on super streptavidin (SSA) biosensors for 300 s.
Supplementary Figure 17. pre-tRNA displaces bound purpurin in a dose-response […]
indicating a true competition between purpurin and pre-tRNA binding sites. […]

P protein = target: T4, P protein (Thermotoga maritima, UniProt Q9X1H4); assay: Binding hindrance of the 5′ RNA leader to the P protein (BLI); design: species or system T. maritima; conditions: compound 100 μM, 5′ RNA leader 5 μM
T4 construct: GST (cleaved yes); made in house; host or cells: E. coli BL21(DE3)pLysS
T4 sequence (Q9X1H4 1-117): T1 sequence (Q9X1H4 1-117)
Protocol: A 5′ RNA leader sequence with 10-bases 5′-GGAAAAAGAU-3′ was purchased from IDT and used at a concentration of 5 μM. This sequence is the same used to obtain the crystal structure of the RNase P holoenzyme ([19]). The His-tagged P protein was immobilized on Ni-NTA biosensors at 0.05 mg/ml (3.4 μM). […] The steps performed on the assay and their periods were: P protein immobilization (400 s), wash (100 s), baseline […] (1000 rpm), compound association (800 s), compound dissociation (200 s) (500 rpm), baseline (100 s), 5′ leader association (200 s), 5′ leader dissociation (200 s) (1000 rpm). The assay was performed at 30°C. The compounds were used at 100 μM throughout. All assay steps were performed in 20 mM HEPES pH 7.4, 100 mM ammonium acetate, 10 mM MgCl2, 5% DMSO.
5 ′ RNA leader. (A) Experimental design of 5′ RNA leader binding hindrance experiments. Figures B-F are based on the analysis region depicted in panel A, where association and dissociation of the 5′ RNA leader to the P protein (TmP) is measured over time. P protein at 3.5 µM was immobilized on Ni-NTA biosensors for 300 s, while compounds were assayed at 100 µM and the […]
binding, in contrast with hematein (E) and purpurin (F).
(1 picture or pasted object on this page, not shown here)

## Mh: 24-nucleotide minihelix RNase P model substrate with 5′ Black Hole Quencher and 3′ Alexa Fluor 488 (GAUCUGAAUGCGGAAACGCGCCAC; 5' BHQ quencher, 3' Alexa Fluor 488, further chemistry not given here)
[1]; Michaelis–Menten fit
  kcat: 0.112 s⁻¹
[1]; holoenzyme 11 nM, Michaelis-Menten fit
  Km: 1.3 µM
RNase P from E. coli
  kobs (previously reported): 0.86 min⁻¹
RNase P from E. coli; read-out: KD (previously reported)
  Kd: 2.8 µM

## P RNA
[2]
  Kd: 0.0005 µM

## CN(C)c1ccc([C+](c2ccc(N(C)C)cc2)c2ccc(N(C)C)cc2)cc1.[Cl-] [Gentian violet, tris(4-(dimethylamino)phenyl)methylium chloride, reference compound]
P RNA [3]
  Inhibition of the P RNA reaction: inhibits the reaction via P RNA
P RNA [4]
  Binding to P RNA: binds more strongly to it
RNase P holoenzyme
  Dose–response displacement of pre-tRNA: No
Minihelix (Mh); 3′-biotinylated minihelix 10 μM on SSA biosensors
  Kd: 8 µM
Minihelix (Mh); initial screening at 1 mM and titration
  Binding to the minihelix substrate: binding signal; also recorded: binds to the biotinylated minihelix substrate in the micromolar range
P protein
  Hindrance of 5′ RNA leader binding to the P protein: did not interfere with RNA leader
P protein; listed as gentian violet
  Hindrance of 5′ RNA leader binding to the P protein: do not impede the leader binding
